Consider ten compounds from patent publication US20250215016A1, “ISOXAZOLE-HETEROCYCLIC DERIVATIVE, PHARMACEUTICAL COMPOSITION AND USE” (SHANGHAI SIMR BIOTECHNOLOGY CO., LTD, priority 2022, published 2025).

Values after ≈ are worked out from the molar mass of the structure shown.

The target in series [1] is human α2β3γ2 receptor (α2-GABAA receptor) (Homo sapiens (Human), UniProt P18507+P47869). In words: Radioligand (3H-flunitrazepam) competition binding assay, BZD site; α2 vs α5 binding selectivity. The settings on record: ratio of Ki at α2β3γ2 to Ki at α5β3γ2. The text has this:
α, β and γ subunits are essential for the formation of a complete functional GABAA receptor. In this example, HEK293 cell strains stably expressing human α5-GABAA receptor (comprising α5β3γ2 subunit) and α2-GABAA receptor (comprising α2β3γ2 subunit) were constructed and screened, respectively, by liposome transfection method (Felgner, P. L., et al., Proceedings of the National Academy of Sciences, 1987, 84:7413-7417). The specific subunit protein sequences are as follows: α5 subunit (protein sequence can be found in GenBank accession number: NM_000810.3); α2 subunit (protein sequence can be found in GenBank accession number: NM_000807.4); β3 subunit (protein sequence can be found in GenBank accession number: NM_000814.5); γ2 subunit (protein sequence can be found in GenBank accession number: NM_000816.3).
The above cell lines were subcultured. Amplification of α5β3γ2-HEK293 and α2β3γ2-HEK293 cells was used to test the affinity of the compounds to benzodiazepine site (BZD) of the GABAA receptor. During the passage of α5β3γ2-HEK293 cells, some of the suspended cells were spread on a glass slide pretreated with Poly-D-Lysine for electrophysiological testing.
Flunitrazepam is a non-specific reagent that binds to the BZD site efficiently. The affinity of the compounds to the BZD sites of the human α5β3γ2 and α2β3γ2 receptors can be determined by competing the compound with ^3H-flunitrazepam (isotope ^3H-labeled flunitrazepam) for binding to these two receptors.
Membrane preparation: HEK293 cells stably expressing human α5β3γ2 receptor or α2β3γ2 receptor were collected, suspended in 50 mM Tris-HCl buffer (pH=7.4), homogenized on ice by a homogenizer for 20 seconds 10 times, and centrifuged at 4° C., 1000 g for 10 min. The supernatant was collected, and the above steps were repeated. The supernatant was centrifuged (33800 g; centrifuge purchased from Thermo, rotor model: A27-8×50) at 4° C. for 60 min, and the precipitate was resuspended in Tris buffer (50 mM Tris-HCl, 10 mM MgCl2, 0.5 mM EDTA, 10% glycerol). The precipitate was the cell membrane. Protein content was determined by BCA (Bicinchoninic Acid) method (BCA kit from Pierce (Annoron)). The cell membrane was prepared into 1 ml aliquot and stored at −80° C.
Radioligand competition binding assay: the assay was carried out in a 200 μL system (96-well plate from Agilent) with 100 μL of cell membrane. The concentration of ^3H-flunitazepam (from PerkinElmer, lot: NET567250 UC) was 1 nM and the concentration of test compound was in the range 1×10^−5-10^−6 M. Flumazenil (from Tocris; lot: 1318) was used as a control. 1 μL of 2 mM flumazenil (final concentration 10 μM) was added to the Low signal control well (Low control, LC) and 1 μL of DMSO (from Sigma aldrich, lot: 472301) was added to the High signal control well (High control, HC). The final target membrane protein concentration was 5 μg/well. All test compound sample stocks were 10 mM DMSO solutions. The working concentration of the samples is to dilute all samples with DMSO to 0.2 mM, and then perform 4-fold continuous gradient dilution for a total of 8 concentration gradients. The 96-well plate was sealed with a plate sealing membrane and then incubated on a shaker at room temperature for 1 hour. Meanwhile, GF/C filter plate was soaked with a plate soaking buffer (0.3% PEI, polyethyleneimine, purchased from Sigma aldrich, model: P314, stored at 4° C.) for at least 0.5 hours. After completion of binding incubation, the cells were collected with a cell collector onto the GF/C filter plate and washed four times with a plate washing buffer (50 mM Tris-HCl, pH 7.4, stored at 4° C.). […]

Series [2] addresses α5-GABAA receptor (Homo sapiens (Human), UniProt P31644). Conditions: highest concentration of L-655,708; GABA 1 μM; cited from earlier work.
The target of series [3] is α5-GABAA receptor (Homo sapiens (Human), UniProt P18507+P31644). In words: Whole-cell patch clamp electrophysiology, inverse regulation activity in α5β3γ2-HEK293 cells. It is filed as cell-based. Conditions: compound 100 nM; GABA 0.05-0.06 μM (about EC7-8); clamped at −60 mV; read-out: Inverse regulation efficiency to α5-GABAA receptor. The gist of the method: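 HEK293 cells expressing α5β3γ2 recorded whole-cell at −60 mV holding potential, GABA 0.05-0.06 μM (about EC7-8) applied, then compound at 100 nM final with GABA. pH 7.4 extracellular, CsCl-based pipette solution. Inverse regulation efficiency = (Itreatment−Igaba)/(Igaba−Iprebaseline)×100%.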

Series [4] deals with human α5β3γ2 receptor (α5-GABAA receptor) (Homo sapiens (Human), UniProt P18507+P31644). Briefly: Radioligand (3H-flunitrazepam) competition binding assay, BZD site. The settings on record: 3H-flunitrazepam 1 nM; HEK293 membranes expressing human α5β3γ2. In a few lines: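 Membranes from HEK293 cells stably expressing human α2β3γ2 or α5β3γ2 (5 μg protein/well) incubated 1 h at room temperature with 1 nM ^3H-flunitrazepam and 8-point 4-fold compound dilutions; nonspecific binding defined with 10 μM flumazenil. Filter-bound radioactivity counted; Ki derived from fitted IC50.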

A short description of series [5]: Thermodynamic solubility in simulated intestinal fluid (FaSSIF). It is filed as physicochemical. Conditions: simulated intestinal fluid (FaSSIF), thermodynamic from solid, 37° C., 1000 rpm. How it is done: 50 mM of phosphate buffer, pH=7.4:0.39 g of NaH2PO4·2H2O, 1.4025 g of Na2HPO4 were weighed, placed into an Erlenmeyer flask, dissolved with the addition of 240 ml of water, homogenously mixed, adjusted to pH 7.4 with 10 M NaOH solution, transferred into a 250 ml volumetric flask and diluted with water to the scale.
Simulated intestinal fluid FaSSIF: 54.76 mg of FaSSIF-V2 (Biorelevant, batch. V2FAS-0619-A, lot. V2FAS01) was weighed, and added to 15 ml of buffer, and after dissolution, the solution was made up to 30 ml and left to stand at room temperature for 1 hour for use.
Waters e2695 HPLC high performance liquid chromatography, Mettler XSE105 analytical balance.
Stock solution containing 10 mM of each test compound was formulated using DMSO, diluted into […] standard curve solution using diluent (ACN:PB buffer with a volume ratio of 50:50), and tested by HPLC to obtain a standard curve of concentration vs peak area of each test compound.
Thermodynamic solubility in simulated intestinal fluid (TS in FaSSIF). About 0.3 mg of each sample (test compound) was weighed, added into 1.5 mL of FaSSIF solution, two samples in parallel, shaken at 1000 rpm and 37° C. for 4 hours, and filtered, 1 mL of primary filtrate was discarded, then 400 μL of subsequent filtrate was taken, and tested by using a high performance liquid chromatograph (UV).

As to `Cc1ncc(-c2ccc(OCc3c(C)nnn3-c3ccc(C(F)F)cc3)nn2)o1` [WO2020016443A1, Example 6, reference compound], the “Selectivity α2 ki/α5 ki” value in series [1] worked out at 13.2 folds.

Regarding `CCOC(=O)c1ncn2c1[C@@H]1CCCN1C(=O)c1cc(OC)ccc1-2` [L-655,708], the “Inhibition of GABA-induced current” value at α5-GABAA receptor [2] is 15%.

As to `Cc1onc(-c2ccc(F)cc2)c1COc1ccc(N2CCn3c(C)nnc3C2=O)nn1` [Compound 36, 7-(6-((3-(4-fluorophenyl)-5-methylisoxazol-4-yl)methoxy)pyridazin-3-yl)-3-methyl-6,7-dihydro-[1,2,4]triazolo[4,3-a]pyrazin-8(H)-one], on α5-GABAA receptor [3], the inhibition at 0.1 µM was found to be 45%. This compound registered an inhibitory constant (Ki) in series [4] of 3.39 nM. Further, the “Selectivity α2 ki/α5 ki” value in series [1] was determined as 46.9 folds.

For `Cc1noc(-c2ccc(OCc3c(-c4ccccc4)noc3C)nc2)n1` [WO2009071476, Example 245, reference compound], the solubility (thermodynamic) at 4 h in series [5] is 0.9 µg/mL (≈ 2.58 µM).

With `Cc1onc(-c2ccc(F)cc2)c1COc1ccc(-c2nnc3n2CCN(S(C)(=O)=O)C3)cn1` [Compound 31, 3-(4-fluorophenyl)-5-methyl-4-(((5-(7-(methylsulfonyl)-5,6,7,8-tetrahydro-[1,2,4]triazolo[4,3-a]pyrazin-3-yl)pyridin-2-yl)oxy)methyl)isoxazole], the solubility (thermodynamic) at 4 h in series [5] was 32.9 µg/mL (≈ 67.8 µM).

With `COc1ncc(-c2ccc(OCc3c(C)nnn3-c3ccc(C(F)F)cc3)nn2)cn1` [WO2020016443A1, Example 3, reference compound], the “Selectivity α2 ki/α5 ki” value in series [1] is recorded as 14.5 folds.

For `Cc1onc(-c2ccc(F)cc2)c1COc1ccc(-c2nnc3n2CCCOC3)cn1` [Compound 20, 3-(6-((3-(4-fluorophenyl)-5-methylisoxazol-4-yl)methoxy)pyridin-3-yl)-6,7-dihydro-5H,9H-[1,2,4]triazolo[3,4-c][1,4]oxazepane], the inhibition at 0.1 µM at α5-GABAA receptor [3] stood at 45%. In series [4], this compound yielded a Ki of 11.2 nM. Besides, the “Selectivity α2 ki/α5 ki” value in series [1] is given as 109 folds.

With `Cc1onc(-c2ccc(F)cc2)c1COc1ccc(N2CCn3ccnc3C2)nn1` [Compound 35, 4-(((6-(5,6-dihydroimidazo [1,2-a]pyrazin-7(8H)-yl)pyridazin-3-yl)oxy)methyl)-3-(4-fluorophenyl)-5-methylisoxazole], the inhibition at 0.1 µM at α5-GABAA receptor [3] was 49%. In series [4], this compound came in with an inhibition constant (Ki) of 1.44 nM. Further, in series [1], the “Selectivity α2 ki/α5 ki” value was determined as 35.8 folds.

Regarding `Cc1onc(-c2ccc(F)cc2)c1COc1ccc(-c2nnc3n2CCCOC3)nn1` [Compound 21, 3-(6-((3-(4-fluorophenyl)-5-methylisoxazol-4-yl)methoxy)pyridazin-3-yl)-6,7-dihydro-5H,9H-[1,2,4]triazolo[3,4-c][1,4]oxazepane], on α5-GABAA receptor [3], the inhibition at 0.1 µM came to 46%. Moreover, in series [4], the Ki came out at 0.91 nM. Further, the “Selectivity α2 ki/α5 ki” value in series [1] turned out to be 51 folds.

`CC(=O)N1CCn2c(nnc2-c2ccc(OCc3c(-c4ccc(F)cc4)noc3C)nc2)C1` [Compound 30, 1-(3-(6-((3-(4-fluorophenyl)-5-methylisoxazol-4-yl)methoxy)pyridin-3-yl)-5,6-dihydro-[1,2,4]triazolo[4,3-a]pyrazin-7(8H)-yl)ethan-1-one] came in with a solubility (thermodynamic) at 4 h in series [5] of 191 µg/mL (≈ 426 µM). The inhibition at 0.1 µM at α5-GABAA receptor [3] came out at 41%. In addition, the Ki in series [4] amounted to 9.86 nM.

For orientation: Ki means a measure of affinity in units of concentration, obtained from inhibition or displacement. Lower therefore signals higher affinity. Broadly, the thermodynamic solubility is solubility found after equilibrating the solid with the medium.
